Counter-ions that a name gives are not always drawn.
Row | SMILES | melting point
1 | CC1(CN)Cc2cc(Cl)cc(-c3ccsc3)c2O1 (racemic) (as salt: hydrochloride) [Example 113, (±)-(5-chloro-2-methyl-7-thien-3-yl-2,3-dihydro-1-benzofuran-2-yl)methylamine] | 295 to 298 °C (dec.)
2 | NCC1Cc2cccc(CCc3ccccc3)c2O1 (racemic) (as salt: hydrochloride) [Example 120, (±)-1-[7-(2-phenylethyl)-2,3-dihydro-1-benzofuran-2-yl]methanamine] | 155 to 157 °C
3 | Cc1ccc(-c2cccc3c2OC(CN)C3)cc1 (racemic) (as salt: hydrochloride) [Example 70, (±)-1-[7-(4-methylphenyl)-2,3-dihydro-1-benzofuran-2-yl]methanamine] | 231 to 232 °C
4 | NCC1Cc2c(F)ccc(-c3ccccc3)c2O1 (racemic) (as salt: hydrochloride) [Example 98, (±)-1-(4-fluoro-7-phenyl-2,3-dihydro-1-benzofuran-2-yl)methanamine] | 254 to 257 °C
5 | NCC1Cc2cccc(-c3cccc(F)c3)c2O1 (single isomer, unassigned; (+)) (as salt: hydrochloride) [Example 131, (+)-1-[7-(3-fluorophenyl)-2,3-dihydro-1-benzofuran-2-yl]methanamine] | 186 to 188 °C
6 | NCC1Cc2cccc(-c3ccc(C(F)(F)F)cc3)c2O1 (single isomer, unassigned; (+)) (as salt: hydrochloride) [Example 137, (+)-1-{7-[4-(trifluoromethyl)phenyl]-2,3-dihydro-1-benzofuran-2-yl}methanamine] | 226 to 229 °C
7 | NCC1Cc2cccc(-c3ccc(Cl)cc3)c2O1 (racemic) (as salt: hydrochloride) [Example 76, (±)-1-[7-(4-chlorophenyl)-2,3-dihydro-1-benzofuran-2-yl]methanamine] | 212 to 214 °C
8 | Cc1ccccc1-c1cc(F)cc2c1OC(CN)C2 (single isomer, unassigned; (+)) (as salt: hydrochloride) [Example 105, (+)-1-[5-fluoro-7-(2-methylphenyl)-2,3-dihydro-1-benzofuran-2-yl]methanamine] | 227 to 230 °C
9 | NCC1Cc2cccc(-c3cccc(C(F)(F)F)c3)c2O1 (racemic) (as salt: hydrochloride) [Example 69, (±)-1-{7-[3-(trifluoromethyl)phenyl]-2,3-dihydro-1-benzofuran-2-yl}methanamine] | 172 to 174 °C
10 | CNCC1Cc2cccc(-c3c(Cl)cccc3Cl)c2O1 (single isomer, unassigned; (-)) (as salt: hydrochloride) [Example 434, (−)-{[7-(2,6-dichlorophenyl)-2,3-dihydro-1-benzofuran-2-yl]methyl}methylamine] | 195 to 197 °C
11 | NCC1Cc2cccc(-c3ccc(F)cc3F)c2O1 (racemic) (as salt: hydrochloride) [Example 146, (±)-1-[7-(2,4-difluorophenyl)-2,3-dihydro-1-benzofuran-2-yl]methanamine] | 222 to 224 °C
12 | NCC1Cc2cc(F)cc(-c3ccccc3C(F)(F)F)c2O1 (single isomer, unassigned; (-)) (as salt: hydrochloride) [Example 151, (−)-1-{5-fluoro-7-[2-(trifluoromethyl)phenyl]-2,3-dihydro-1-benzofuran-2-yl}methanamine] | 183 to 188 °C
13 | NCC1Cc2cccc(-c3c(Cl)cc(Cl)cc3Cl)c2O1 (racemic) (as salt: hydrochloride) [Example 166, (±)-{[7-(2,4,6-trichlorophenyl)-2,3-dihydro-1-benzofuran-2-yl]methyl}amine] | > 225 °C
14 | NCC1Cc2cc(F)cc(-c3ccccc3Cl)c2O1 (single isomer, unassigned; (-)) (as salt: hydrochloride) [Example 102, (−)-1-[7-(2-chlorophenyl)-5-fluoro-2,3-dihydro-1-benzofuran-2-yl]methanamine] | 206 to 209 °C
15 | NCC1Cc2cccc(-c3cccc(F)c3)c2O1 (racemic) (as salt: hydrochloride) [Example 64, (±)-1-[7-(3-fluorophenyl)-2,3-dihydro-1-benzofuran-2-yl]methanamine] | 200 to 202 °C
16 | COc1ccc(-c2cccc3c2OC(CN)C3)cc1 (single isomer, unassigned; (-)) (as salt: hydrobromid) [Example 81, (−)-1-[7-(4-methoxyphenyl)-2,3-dihydro-1-benzofuran-2-yl]methanamine] | 185 to 188 °C
17 | CNCC1Cc2cc(Cl)cc(-c3ccsc3)c2O1 (single isomer, unassigned; (+)) (as salt: hydrochloride) [Example 93, (+)-N-[(5-chloro-7-thien-3-yl-2,3-dihydro-1-benzofuran-2-yl)methyl]-N-methylamine] | 263 to 266 °C
18 | NCC1Cc2cccc(Cc3ccccc3)c2O1 (single isomer, unassigned; (+)) (as salt: hydrochloride) [Example 16, (+)-1-(7-benzyl-2,3-dihydro-1-benzofuran-2-yl)methanamine] | 128 to 131 °C

Row | SMILES | melting point
19 | NCC1Cc2cccc(-c3ccc(F)cc3)c2O1 (single isomer, unassigned; (+)) (as salt: hydrobromid) [Example 74, (+)-1-[7-(4-fluorophenyl)-2,3-dihydro-1-benzofuran-2-yl]methanamine] | 207 to 208 °C
20 | NCC1Cc2cccc(-c3ccc(Cl)cc3Cl)c2O1 (racemic) (as salt: hydrochloride) [Example 83, (±)-1-[7-(2,4-dichlorophenyl)-2,3-dihydro-1-benzofuran-2-yl]methanamine] | 198 to 200 °C
21 | CC1(CN)Cc2cc(Cl)cc(-c3ccccc3)c2O1 (racemic) (as salt: hydrochloride) [Example 112, (±)-1-(5-chloro-2-methyl-7-phenyl-2,3-dihydro-1-benzofuran-2-yl)methanamine] | 222 to 225 °C
22 | NCC1Cc2c(F)c(F)cc(-c3ccccc3)c2O1 (racemic) (as salt: hydrochloride) [Example 109, (±)-(4,5-difluoro-7-phenyl-2,3-dihydro-1-benzofuran-2-yl)methylamine] | > 240 °C
23 | Cc1ccc(-c2cccc3c2OC(CN)C3)cc1 (single isomer, unassigned; (+)) (as salt: hydrobromid) [Example 71, (+)-1-[7-(4-methylphenyl)-2,3-dihydro-1-benzofuran-2-yl]methanamine] | > 250 °C
24 | NCC1Cc2cccc(-c3ccccc3Cl)c2O1 (single isomer, unassigned; (-)) (as salt: hydrochloride) [Example 129, (−)-1-[7-(2-chlorophenyl)-2,3-dihydro-1-benzofuran-2-yl]methanamine] | 186 to 188 °C
25 | NCC1Cc2c(cccc2-c2ccccc2C(F)(F)F)O1 (single isomer, unassigned; (-)) (as salt: hydrochloride) [Example 123, (−)-1-{4-[2-(trifluoromethyl)phenyl]-2,3-dihydro-1-benzofuran-2-yl}methanamine] | 203 to 206 °C
26 | CC(C)(C)c1cc(Cl)cc2c1OC(CN)C2 (single isomer, unassigned; (-)) (as salt: hydrobromid) [Example 28, (−)-1-(7-tert-butyl-5-chloro-2,3-dihydro-1-benzofuran-2-yl)methanamine] | 219 to 222 °C
27 | NCC1Cc2cc(Cl)cc(C3CCCCC3)c2O1 (racemic) (as salt: hydrochloride) [Example 11, (±)-(5-chloro-7-cyclohexyl-2,3-dihydro-1-benzofuran-2-yl)methylamine] | 210 to 213 °C
28 | Cc1cc(Cl)ccc1-c1cc(F)cc2c1O[C@@H](CN)C2 (as salt: hydrochloride) [Example 549, {[(2R)-7-(4-chloro-2-methylphenyl)-5-fluoro-2,3-dihydro-1-benzofuran-2-yl]methyl}amine] | 183 to 185 °C
29 | NCCC1Cc2cc(F)cc(-c3c(Cl)cccc3Cl)c2O1 (racemic) (as salt: hydrochloride) [Example 553, (±)-{2-[7-(2,6-dichlorophenyl)-5-fluoro-2,3-dihydro-1-benzofuran-2-yl]ethyl}amine] | 212 to 213 °C
30 | CC(C)c1ccccc1-c1cccc2c1OC(CN)C2 (single isomer, unassigned; (+)) (as salt: hydrochloride) [Example 62, (+)-[7-(2-isopropylphenyl)-2,3-dihydro-1-benzofuran-2-yl]methylamine] | 205 to 206 °C
31 | NCC1Cc2cc(Cl)cc(-c3ccsc3)c2O1 (racemic) (as salt: hydrochloride) [Example 90, (±)-(5-chloro-7-thien-3-yl-2,3-dihydro-1-benzofuran-2-yl)methylamine] | 230 °C (dec.)
32 | NCC1Cc2cccc(-c3cccc(Cl)c3)c2O1 (single isomer, unassigned; (+)) (as salt: hydrobromid) [Example 66, (+)-1-[7-(3-chlorophenyl)-2,3-dihydro-1-benzofuran-2-yl]methanamine] | 187 to 189 °C
33 | NCC1Cc2c(cccc2-c2ccccc2C(F)(F)F)O1 (racemic) (as salt: hydrochloride) [Example 122, (±)-1-{4-[2-(trifluoromethyl)phenyl]-2,3-dihydro-1-benzofuran-2-yl}methanamine] | 213 to 215 °C
34 | Cc1cccc(-c2cccc3c2OC(CN)C3)c1 (single isomer, unassigned; (-)) (as salt: hydrochloride) [Example 43, (−)-1-[7-(3-methylphenyl)-2,3-dihydro-1-benzofuran-2-yl]methanamine] | 194 to 196 °C
35 | NCC1Cc2cccc(-c3cccc(C(F)(F)F)c3)c2O1 (single isomer, unassigned; (-)) (as salt: hydrochloride) [Example 135, (−)-1-{7-[3-(trifluoromethyl)phenyl]-2,3-dihydro-1-benzofuran-2-yl}methanamine] | 184 to 186 °C
36 | NCC1Cc2cccc(-c3cccc(Cl)c3)c2O1 (single isomer, unassigned; (-)) (as salt: hydrobromid) [Example 67, (−)-1-[7-(3-chlorophenyl)-2,3-dihydro-1-benzofuran-2-yl]methanamine] | 189 to 190 °C
